Measured values published in patent US11590129B2, “Combination therapy with an antitumor alkaloid” (PHARMA MAR, S.A., priority 2010, dated 2023).

Key:
[1] = system: MOLT-4 human leukemia cell line; assay: cells; details: Homo sapiens, MOLT-4, 72 h
Protocol: (§1) Additional serial dilutions were prepared in serum-free culture medium to achieve a final 4× concentration. Aliquots of 50 μL of each diluted compound were added per well.
(§2) JURKAT and MOLT-4 were the human leukemia cell lines selected for this assay, which were obtained from the American Type Culture Collection (ATCC).
(§3) Briefly, cells were seeded in 96 well microtiter plates at a density of 50000 cells per well in 150 μL of culture medium and incubated for 4-6 hours in drug-free medium before treatment with vehicle alone or test compounds for 72 hours.
(§4) After incubation, the cytotoxic effect was evaluated using a MTT reduction assay. 50 μL of MTT solution (1 mg/mL) were added to the wells and incubated for 15-17 hours at 37° C. until formazan crystals were formed. After gently removing the culture medium, DMSO was added to dissolve the insoluble purple formazan product into a colored solution. […] Results were expressed as percentage of control cell growth. The EC50 values (half-maximal effective concentration) used for the combination studies were calculated using Prism v5.02 software (GraphPad). EC50 was expressed as molar concentration and represented the mean of at least three independent assays.
(§5) b. In a second set of experiments, concentration-response curves for the agents tested, both alone and in two-drug combination, were performed, using the same methodology described in the previous paragraph.
(§6) Using these starting concentrations, constant serial dilutions were performed to generate the concentration-response curves for each set of drugs, alone and in combination.
(§7) Based on this equation, the term “combination index” (CI) is used as a quantitative measure of the degree of drug interactions. […] CI values were calculated by solving the equation for different values of fa (i.e., for different degrees of cell groth inhibition).
(§8) Data were analyzed using CalcuSyn software (Biosoft, Cambridge, UK). For statistical analysis and graphs Prism software (GraphPad, San Diego, USA) was used. All the results represent the mean of at least three independent experiments.

[2] = system: JURKAT human leukemia cell line; assay: cells; details: Homo sapiens, Jurkat, 72 h
Protocol: as §1, §2, §3, §4, §5, §6, §7, §8

HT-29 tumors = assay: Human colorectal tumor xenografts (HT-29) in athymic nude mice, tumor volume % T/C
[3] = system: RAMOS human lymphoma cell line; assay: cells; details: Homo sapiens, Ramos, 72 h
[4] = system: A673 human rhabdomyosarcoma cell line; assay: cells; details: Homo sapiens, A673, 72 h
Procedure, shortened: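 A673 cells seeded at 5,000 per well, grown 24 h drug-free, then exposed to compounds for 72 h. Viability by MTT reduction (8 h, 37 °C), formazan dissolved in DMSO. Results expressed as percentage of control cell growth.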

[5] = system: PC-3 human prostate cancer cell line; assay: cells; details: Homo sapiens, PC-3, 72 h
Procedure, shortened: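 Cells seeded at 5,000/well, grown 24 h drug-free, then exposed to vehicle or test compounds for 72 h. Viability by MTT reduction (8 h, 37 °C), formazan dissolved in DMSO. Values given as percentage of control cell growth.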

H460 tumors = assay: Human lung tumor xenografts (H460) in athymic nude mice, tumor volume % T/C
[6] = system: A549 human lung carcinoma cell line; assay: MTT cytotoxicity assay in A549 cells: IC50 of single agents and combinations with PM01183; assay type: cell-based; details: Homo sapiens, A549, 72 h
Procedure, shortened: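 A549 cells seeded at 5,000 per well, grown 24 h drug-free, then exposed to vehicle or compounds for 72 h, either singly or combined with PM01183. Combination responses plotted against dose ratio relative to an additivity line.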

For `COc1ccc2[nH]c3c(c2c1)CCN[C@]31CS[C@@H]2c3c(OC(C)=O)c(C)c4c(c3[C@H](COC1=O)N1[C@@H]2[C@H]2c3c(cc(C)c(OC)c3O)C[C@@H]([C@@H]1O)N2C)OCO4` [PM01183], the EC50 [1] was 0.857 nM, the EC50 [2] was 1.55 nM and the “% T/C on day 0” value (HT-29 tumors; PM01183 0.045 mg/kg) was 99.8%. The “% T/C on day 3” value (HT-29 tumors; PM01183 0.045 mg/kg) was 103.7%, the “% T/C on day 5” value (HT-29 tumors; PM01183 0.045 mg/kg) was 100.6% and the “% T/C on day 7” value (HT-29 tumors; PM01183 0.045 mg/kg) was 111.1%. For the same compound, the “% T/C on day 10” value (HT-29 tumors; PM01183 0.045 mg/kg) was 135.8%, the “% T/C on day 12” value (HT-29 tumors; PM01183 0.045 mg/kg) was 125.1% and the “% T/C on day 14” value (HT-29 tumors; PM01183 0.045 mg/kg) was 109.3%. The “% T/C on day 0” value (HT-29 tumors; PM01183 0.09 mg/kg) was 98.4%, the “% T/C on day 3” value (HT-29 tumors; PM01183 0.09 mg/kg) was 100.9% and the “% T/C on day 5” value (HT-29 tumors; PM01183 0.09 mg/kg) was 88.7%. The “% T/C on day 7” value (HT-29 tumors; PM01183 0.09 mg/kg) was 121.9%, the “% T/C on day 10” value (HT-29 tumors; PM01183 0.09 mg/kg) was 129.8% and the “% T/C on day 12” value (HT-29 tumors; PM01183 0.09 mg/kg) was 114.1%. For the same compound, the “% T/C on day 14” value (HT-29 tumors; PM01183 0.09 mg/kg) was 109.4%, the “% T/C on day 17” value (HT-29 tumors; PM01183 0.09 mg/kg) was 116.1% and the “% T/C on day 20” value (HT-29 tumors; PM01183 0.09 mg/kg) was 93.4%. The “% T/C on day 0” value (HT-29 tumors; PM01183 0.135 mg/kg) was 98.4%, the “% T/C on day 3” value (HT-29 tumors; PM01183 0.135 mg/kg) was 106.4% and the “% T/C on day 5” value (HT-29 tumors; PM01183 0.135 mg/kg) was 95.3%. For the same compound, the “% T/C on day 7” value (HT-29 tumors; PM01183 0.135 mg/kg) was 116.6%, the “% T/C on day 10” value (HT-29 tumors; PM01183 0.135 mg/kg) was 115.2% and the “% T/C on day 12” value (HT-29 tumors; PM01183 0.135 mg/kg) was 119.1%. For the same compound, the “% T/C on day 14” value (HT-29 tumors; PM01183 0.135 mg/kg) was 121.5%, the “% T/C on day 17” value (HT-29 tumors; PM01183 0.135 mg/kg) was 133.1% and the “% T/C on day 20” value (HT-29 tumors; PM01183 0.135 mg/kg) was 105.2%. The “% T/C on day 0” value (HT-29 tumors; PM01183 0.18 mg/kg) was 100.4%, the “% T/C on day 3” value (HT-29 tumors; PM01183 0.18 mg/kg) was 108.4% and the “% T/C on day 5” value (HT-29 tumors; PM01183 0.18 mg/kg) was 86.5%. For the same compound, the “% T/C on day 7” value (HT-29 tumors; PM01183 0.18 mg/kg) was 101.1%, the “% T/C on day 10” value (HT-29 tumors; PM01183 0.18 mg/kg) was 116.5% and the “% T/C on day 12” value (HT-29 tumors; PM01183 0.18 mg/kg) was 115.4%. For the same compound, the “% T/C on day 14” value (HT-29 tumors; PM01183 0.18 mg/kg) was 123.4%, the “% T/C on day 17” value (HT-29 tumors; PM01183 0.18 mg/kg) was 86.7% and the “% T/C on day 20” value (HT-29 tumors; PM01183 0.18 mg/kg) was 77.5%. The EC50 [3] was 1.39 nM, the IC50 [4] was 2.2 nM and the IC50 [5] was 2.6 nM. For the same compound, the “% T/C on day 0” value (H460 tumors; PM01183 0.045 mg/kg) was 108.3%, the “% T/C on day 2” value (H460 tumors; PM01183 0.045 mg/kg) was 78.7% and the “% T/C on day 5” value (H460 tumors; PM01183 0.045 mg/kg) was 61.2%. For the same compound, the “% T/C on day 7” value (H460 tumors; PM01183 0.045 mg/kg) was 67.2%, the “% T/C on day 9” value (H460 tumors; PM01183 0.045 mg/kg) was 78.8% and the “% T/C on day 12” value (H460 tumors; PM01183 0.045 mg/kg) was 87.9%. For the same compound, the “% T/C on day 0” value (H460 tumors; PM01183 0.09 mg/kg) was 116.9%, the “% T/C on day 2” value (H460 tumors; PM01183 0.09 mg/kg) was 83.1% and the “% T/C on day 5” value (H460 tumors; PM01183 0.09 mg/kg) was 83.9%. The “% T/C on day 7” value (H460 tumors; PM01183 0.09 mg/kg) was 76.9%, the “% T/C on day 9” value (H460 tumors; PM01183 0.09 mg/kg) was 80.6% and the “% T/C on day 12” value (H460 tumors; PM01183 0.09 mg/kg) was 84.9%. The “% T/C on day 0” value (H460 tumors; PM01183 0.135 mg/kg) was 117.6%, the “% T/C on day 2” value (H460 tumors; PM01183 0.135 mg/kg) was 77.4% and the “% T/C on day 5” value (H460 tumors; PM01183 0.135 mg/kg) was 67.5%. For the same compound, the “% T/C on day 7” value (H460 tumors; PM01183 0.135 mg/kg) was 71.7%, the “% T/C on day 9” value (H460 tumors; PM01183 0.135 mg/kg) was 66.7% and the “% T/C on day 12” value (H460 tumors; PM01183 0.135 mg/kg) was 52.9%. For the same compound, the “% T/C on day 0” value (H460 tumors; PM01183 0.18 mg/kg) was 114.4%, the “% T/C on day 2” value (H460 tumors; PM01183 0.18 mg/kg) was 79.6% and the “% T/C on day 5” value (H460 tumors; PM01183 0.18 mg/kg) was 74.7%. For the same compound, the “% T/C on day 7” value (H460 tumors; PM01183 0.18 mg/kg) was 75.0%, the “% T/C on day 9” value (H460 tumors; PM01183 0.18 mg/kg) was 69.1% and the “% T/C on day 12” value (H460 tumors; PM01183 0.18 mg/kg) was 64.9%. For the same compound, the IC50 [6] was 3.6 nM.
